From patent publication US20240408222A1, “COMPOUNDS, PHARMACEUTICAL COMPOSITIONS, AND METHODS FOR THE TREATMENT, PREVENTION, OR MANAGEMENT OF HYPERPRO[…]” (VINCERX PHARMA GMBH, priority 2021, published 2024)

Key:
Test in all cases: Cytotoxicity assay (Version 2, automated, AC50) with/without neutrophil elastase
Settings in all cases: Version 2, activity concentration at −50%
786-O = assay type: cell-based, human
Description: (§1) Cultivation of cells was performed according to standard procedures with the media recommended by the provider. The cells, in a total volume of 100 μL, were seeded in a 96-well plate with a white bottom (#3610). After a 24 h incubation period at 37° C. and […], the medium was exchanged by adding 90 μL fresh medium. The treatment started by adding the test compound in 10 μL of culture medium to the cells in triplicates. Concentrations ranging from 10^−5 M to 10^−13 M were chosen. Two identically treated sets of samples were prepared. One set was treated with the test compound alone, whereas to the second set the compound and 10 nM elastase was added followed by a 72 h incubation period at 37° C. and […]. The proliferation was detected using the MTT assay (ATCC). At the end of the incubation period the MTT reagent was added to all samples for 4 h. Lysis of the cells followed by addition of the detergent was done overnight. The formed dye was detected at 570 nm. The proliferation of untreated but otherwise identically handled cells was define as the 100% value.
(§2) The cytotoxicity assay (Version 2) was performed as described above. Some changes were applied as the assays were performed in an automated fashion and the IC50 values determination was changed. Here the change in metabolic activity of the cells, in percent, was calculated by normalization of the measured values to the absorbance values of medium containing wells without cells (═−100%) and the absorbance of the DMSO-treated cells (═0%). AC50 values (activity concentration at −50%) were determined by means of a 4 parameter Hill-fit using GeneData Screener software.

HT29 = assay type: cell-based, human
Description: as §1, §2

NCI H292 = assay type: cell-based, human
Description: as §1, §2

SUM149 = assay type: cell-based
Description: as §1, §2

[1] = without (−) neutrophil elastase
[2] = HT29, with (+) neutrophil elastase
[3] = HT29, without (−) neutrophil elastase
[4] = NCI H292, with (+) neutrophil elastase
[5] = NCI H292, without (−) neutrophil elastase
[6] = SUM149, with (+) neutrophil elastase
[7] = SUM149, without (−) neutrophil elastase

| Compound | AC50 (786-O; with (+) neutrophil elastase) [nM] | AC50 (786-O; [1]) [nM] | AC50 (HT29; [2]) [nM] | AC50 (HT29; [3]) [nM] | AC50 (NCI H292; [4]) [nM] | AC50 (NCI H292; [5]) [nM] | AC50 (SUM149; [6]) [nM] | AC50 (SUM149; [7]) [nM] |
| --- | --- | --- | --- | --- | --- | --- | --- | --- |
| CCCNC(=O)Nc1cccc(S(=O)(=O)Nc2cccc([C@@H](CC(=O)O)NC(=O)Nc3ccc(NC(=O)NCCN(C)CCN(C)CCN(C)CC(=O)N[C@@H](CC(N)=O)C(=O)N4CCC[C@H]4C(=O)N[C@H](C(=O)N=S(C)(=O)Cc4cc5nc(c4)OCCCOc4cc(F)ccc4-c4cc(ncc4F)N5)C(C)C)cc3)c2)c1 (mixture of isomers) [Compound 22] | ≤ 10 | 100 to 1000 | ≤ 10 | 100 to 1000 | ≤ 10 | 100 to 1000 | ≤ 10 | 100 to 1000 |
| CCCNC(=O)Nc1cccc(S(=O)(=O)Nc2cccc([C@H](CC(=O)O)NC(=O)Nc3ccc(NC(=O)NCCN(C)CCN(C)CCN(C)CC(=O)N[C@@H](CC(N)=O)C(=O)N4CCC[C@H]4C(=O)N[C@H](C(=O)N=S(C)(=O)Cc4cc5nc(c4)OCCCOc4cc(F)ccc4-c4cc(ncc4F)N5)C(C)C)cc3)c2)c1 (mixture of isomers) [Compound 23] | ≤ 10 | 100 to 1000 | ≤ 10 | 100 to 1000 | ≤ 10 | 100 to 1000 | ≤ 10 | 100 to 1000 |
| CCCNC(=O)Nc1cccc(S(=O)(=O)Nc2cccc([C@@H](CC(=O)O)NC(=O)Nc3ccc(NC(=O)NCCOCCOCCOCCC(=O)N[C@@H](CC(=O)O)C(=O)N4CCC[C@H]4C(=O)N[C@H](C(=O)N=[S@@](C)(=O)Cc4cc5nc(c4)OCCCOc4cc(F)ccc4-c4cc(ncc4F)N5)C(C)C)cc3)c2)c1 (racemic) [Compound 37, N-(14-{4-[({(1R)-2-carboxy-1-[3-({3-[(propylcarbamoyl)amino]benzene-1-sulfonyl}amino)phenyl]ethyl}carbamoyl)amino]anilino}-14-oxo-4,7,10-trioxa-13-azatetradecanan-1-oyl)-L-alpha-aspartyl-L-prolyl-N—[(RS)—{[15,19-difluoro-3,4-dihydro-2H,11H-10,6-(azeno)-12,16-(metheno)-1,5,11,13-benzodioxadiazacyclooctadecin-8-yl]methyl}(methyl)oxo-lambda^6-sulfanylidene]-L-valinamide] | ≤ 10 | 100 to 1000 | ≤ 10 | 100 to 1000 | ≤ 10 | 100 to 1000 | ≤ 10 | 100 to 1000 |
| CCCNC(=O)Nc1cccc(S(=O)(=O)Nc2cccc([C@@H](CC(=O)O)NC(=O)Nc3ccc(NC(=O)NCCOCCOCCOCCC(=O)NCCCC[C@H](NC(=O)CCOCCOCCOCCNC(=O)Nc4ccc(NC(=O)N[C@H](CC(=O)O)c5cccc(NS(=O)(=O)c6cccc(NC(=O)NCCC)c6)c5)cc4)C(=O)NCCN(C)CCN(C)CCN(C)CC(=O)N[C@@H](CC(N)=O)C(=O)N4CCC[C@H]4C(=O)N[C@H](C(=O)N=[S@@](C)(=O)Cc4cc5cc(c4)O[C@@H](C)CCOc4cc(F)ccc4-c4nc(ncc4F)N5)C(C)C)cc3)c2)c1 (relative stereo) [Compound 28] | ≤ 10 | > 1000 | ≤ 10 | 100 to 1000 | ≤ 10 | 100 to 1000 | ≤ 10 | 100 to 1000 |
| CCCNC(=O)Nc1cccc(S(=O)(=O)Nc2cccc([C@H](CC(=O)O)NC(=O)Nc3ccc(NC(=O)NCCOCCOCCOCCC(=O)NCCCC[C@H](NC(=O)CCOCCOCCOCCNC(=O)Nc4ccc(NC(=O)N[C@@H](CC(=O)O)c5cccc(NS(=O)(=O)c6cccc(NC(=O)NCCC)c6)c5)cc4)C(=O)NCCN(C)CCN(C)CCN(C)CC(=O)N[C@@H](CC(N)=O)C(=O)N4CCC[C@H]4C(=O)N[C@H](C(=O)N=[S@@](C)(=O)Cc4cc5cc(c4)O[C@@H](C)CCOc4cc(F)ccc4-c4nc(ncc4F)N5)C(C)C)cc3)c2)c1 (relative stereo) [Compound 29] | ≤ 10 | > 1000 | ≤ 10 | 100 to 1000 | ≤ 10 | 100 to 1000 | ≤ 10 | 100 to 1000 |
